Reference: patent US7754864B2, “Tyrosinase activity controlling agent, process for producing the same and external preparation containing the same” (National Institute of Advanced Industrial Science and …, priority 2002, dated 2010)

Tests used:
[1] = tested on: tyrosinase (derived from mushroom, SIGMA); test: Tyrosinase inhibitory activity using proline, phenol as substrate; assay type: biochemical; conditions: for tyrosinase inhibitory activity: phenol as substrate, absorbance 525 nm
Protocol: The tyrosinase inhibitory activity of an undecylenic acid sugar ester was determined using phenol as a substrate, by a modification of the method using pyrocatechol.

[2] = tested on: tyrosinase (derived from mushroom, SIGMA); test: Tyrosinase inhibitory activity using proline, pyrocatechol as substrate; assay type: biochemical; conditions: pyrocatechol (catechol) as substrate, absorbance 525 nm
[3] = tested on: tyrosinase (derived from mushroom, SIGMA); test: Tyrosinase activation promoting effect, phenol as substrate in the presence of proline; assay type: biochemical; conditions: FIG. 10
Protocol: Ascorbic acid and ascorbic acid derivatives were used as test substances for measuring tyrosinase activation promoting effects, using phenol as a substrate in the presence of proline.
Phenol is hydroxylated by tyrosinase, and at that time requires a hydrogen donor. The produced pyrocatechol is oxidized by tyrosinase to form an orthoquinone. The orthoquinone formed is quantitated in the presence of proline, to determine the tyrosinase activity.
Specifically, the measurement was carried out as follows. Forty microliters of 0.749 M L-proline dissolved in 0.1 M phosphate buffer at pH 7.5, 40 μl of 0.037 M phenol, and 1.41 ml of one of test substance solutions at various concentrations were stirred in a cuvette for absorbance measurement. A solution (10 μl) of 350 μg/ml of tyrosinase (derived from mushroom, SIGMA) was added, and the absorbance change was measured with stirring for 15 minutes at 525 nm, to determine the tyrosinase activity. […]

Mouse melanoma B16 cells = test: Evaluation of melanogenesis inhibitory effect using mouse melanoma cells; assay type: cell-based; conditions: melanin production per cell, FIG. 4
Protocol: Mouse melanoma B16 cells (3.6×10^5) were added to a 75 cm^2 culture flask containing 15 ml of D-MEM culture medium supplemented with 10% FCS, and incubated overnight at 37° C. under 5% carbon dioxide gas to adhere the cells. The culture medium was changed to 15 ml of 10% FCS-supplemented D-MEM culture medium containing one of 0.1% DMSO solutions of arbutin or 6-O-(10-undecylenoyl) arbutin obtained in Example 1-1 at various concentrations. The incubation was continued for two more days under the same conditions. The culture medium was again changed to 15 ml of the 0.1% DMSO solution-containing culture medium, and incubation was continued for two more days under the same conditions. After incubation, the cells were recovered, and the wet weight of the cells was measured. After the wet weight measurement, pellets of the cells were suspended in MilliQ water to a total volume of 700 μl. […] The absorbance (405 nm) was then measured. […] The melanin production per cell was indicated as absorbance at 405 nm/cell wet weight (μg). The melanogenesis inhibitory effects of arbutin undecylenate or arbutin at each concentration was determined, with the melanin production per cell without addition of arbutin or arbutin undecylenate being taken as 100%.

Compound | tyrosinase inhibitory activity [2] | tyrosinase inhibitory activity [1] | other results
Trehalose oleate | – | not inhibit tyrosinase activity | –
O=C1O[C@H]([C@@H](O)CO)C(O)=C1O [ascorbic acid, L-ascorbic acid] | – | – | concentrations exhibiting tyrosinase activity promoting effects [3]: ≤ 10^−4 M
CCCCCCCCCCCCCCCC(=O)OCC(O)C1OC(=O)C(O)=C1O (stereo not shown) [Ascorbic acid palmitic ester, ascorbic acid-6-palmitate] | – | – | concentrations exhibiting tyrosinase activity promoting effects [3]: ≤ 10^−4 M
C=CCCCCCCCCC(=O)OC[C@H]1O[C@@H](Oc2ccc(O)cc2)[C@H](O)[C@@H](O)[C@@H]1O [arbutin undecylenate, 6-O-(10-undecylenoyl)arbutin] | – | – | melanogenesis inhibitory effect relative to arbutin (Mouse melanoma B16 cells): about 100 times
Sucrose undecylenic acid ester | inhibit tyrosinase activity | inhibit tyrosinase activity | –
trehalose undecylenic acid ester | inhibition of tyrosinase | tyrosinase was inhibited | –
OC[C@H]1O[C@@H](Oc2ccc(O)cc2)[C@H](O)[C@@H](O)[C@@H]1O [Arbutin] | inhibit tyrosinase activity | inhibit tyrosinase activity | tyrosinase inhibitory activity, phenol substrate compared with catechol substrate ([1]; phenol vs catechol substrate, FIG. 6): higher inhibitory activity against a phenol substrate than against a catechol substrate

Further lines, with some results ahead:

tyrosinase inhibitory activity [2] | Compound | tyrosinase inhibitory activity [1] | other results
inhibit tyrosinase activity | C=CCCCCCCCCC(=O)O [Undecylenic acid] | – | –
not inhibit tyrosinase activity | Trehalose diundecylenic acid ester | – | –
